Data published in the supplement of paper PMC11061612.

How the values were obtained:
SN-38 = compound: CCc1c2c(nc3ccc(O)cc13)-c1cc3c(c(=O)n1C2)COC(=O)[C@]3(O)CC [SN-38]; settings: max 0.3 µM
Procedure, shortened: (§1)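 In 1536-well plates, cancer cell lines in 7.5 μl DMEM/F12 or RPMI with 10% FBS spent 24 hours at 37°C and 5% CO2 and were then dosed for 72 hours with final DMSO typically 0.2%. Viability was read by CellTiter-Glo 2.0 luminescence and scaled between blank-well and DMSO-well means. The single-agent IC50 was fitted from dose responses using a logistic curve in a non-linear mixed effects model, and that logistic curve had two parameters.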

AZD8186 = compound: C[C@@H](Nc1cc(F)cc(F)c1)c1cc(C(=O)N(C)C)cc2c(=O)cc(N3CCOCC3)oc12 [AZD8186]; settings: max 10 µM
Procedure, shortened: as §1

AZD1775 = compound: C=CCn1c(=O)c2cnc(Nc3ccc(N4CCN(C)CC4)cc3)nc2n1-c1cccc(C(C)(C)O)n1 [AZD1775]; settings: max 3 µM
Procedure, shortened: as §1

AZD5991 = compound: Cc1c2c(nn1C)CSCc1cc(n(C)n1)CSc1cc(c3ccccc3c1)OCCCc1c(C(=O)O)n(C)c3c-2c(Cl)ccc13 [AZD5991]; settings: max 1 µM
Procedure, shortened: as §1

AZD7648 = compound: Cc1cc2ncnn2cc1Nc1ncc2c(n1)n(C1CCOCC1)c(=O)n2C [AZD7648]; settings: max 10 µM
Procedure, shortened: as §1

Prexasertib = compound: COc1cccc(OCCCN)c1-c1cc(Nc2cnc(C#N)cn2)n[nH]1 [Prexasertib]; settings: max 1 µM
Procedure, shortened: as §1

AZD5153 = compound: COc1nnc2ccc(N3CCC(c4ccc(OCCN5CCN(C)C(=O)[C@H]5C)cc4)CC3)nn12 [AZD5153]; settings: max 1 µM
Procedure, shortened: as §1

Olaparib = compound: O=C(c1cc(Cc2n[nH]c(=O)c3ccccc23)ccc1F)N1CCN(C(=O)C2CC2)CC1 [Olaparib]; settings: max 10 µM
Procedure, shortened: as §1

Carboplatin = compound: C1CC(C1)(C(=O)[O-])C(=O)[O-].N.N.[Pt+2] [Carboplatin]; settings: max 10 µM
Procedure, shortened: as §1

AZD6738 = compound: C[C@@H]1COCCN1C2=NC(=NC(=C2)C3(CC3)[S@](=N)(=O)C)C4=C5C=CNC5=NC=C4 [AZD6738]; settings: max 10 µM
Procedure, shortened: as §1

AZD1390 = compound: CC(C)n1c(=O)n(C)c2cnc3cc(F)c(-c4ccc(OCCCN5CCCCC5)nc4)cc3c21 [AZD1390]; settings: max 0.3 µM
Procedure, shortened: as §1

Palbociclib = compound: CC(=O)c1c(C)c2cnc(Nc3ccc(N4CCNCC4)cn3)nc2n(C2CCCC2)c1=O [Palbociclib]; settings: max 10 µM
Procedure, shortened: as §1

Alisertib = compound: COc1cc(Nc2ncc3c(n2)-c2ccc(Cl)cc2C(c2c(F)cccc2OC)=NC3)ccc1C(=O)O [Alisertib]; settings: max 10 µM
Procedure, shortened: as §1

Doxorubicin = compound: COc1cccc2c1C(=O)c1c(O)c3c(c(O)c1C2=O)C[C@@](O)(C(=O)CO)C[C@@H]3O[C@H]1C[C@H](N)[C@H](O)[C@H](C)O1 [Doxorubicin]; settings: max 1 µM
Procedure, shortened: as §1

Paclitaxel = compound: CC(=O)O[C@H]1C(=O)[C@@]2(C)[C@H]([C@H](OC(=O)c3ccccc3)[C@]3(O)C[C@H](OC(=O)[C@H](O)[C@@H](NC(=O)c4ccccc4)c4ccccc4)C(C)=C1C3(C)C)[C@]1(OC(C)=O)CO[C@@H]1C[C@@H]2O [Paclitaxel]; settings: max 3 µM
Procedure, shortened: as §1

AZD0156 = compound: CN(C)CCCOc1ccc(-c2ccc3ncc4c(c3c2)n(C2CCOCC2)c(=O)n4C)cn1 [AZD0156]; settings: max 3 µM
Procedure, shortened: as §1

AZD4320 = compound: CN(CC[C@H](CSC1=CC=CC=C1)NC2=C(C=C(C=C2)S(=O)(=O)NC(=O)C3=CC=C(C=C3)N4CCC(CC4)[C@H](C5=CC=CC=C5C6=CC=C(C=C6)Cl)O)S(=O)(=O)C(F)(F)F)CCO [AZD4320]; settings: max 1 µM
Procedure, shortened: as §1

Etoposide = compound: COc1cc([C@@H]2c3cc4c(cc3[C@@H](O[C@@H]3O[C@@H]5CO[C@@H](C)O[C@H]5[C@H](O)[C@H]3O)[C@H]3COC(=O)[C@H]23)OCO4)cc(OC)c1O [Etoposide]; settings: max 10 µM
Procedure, shortened: as §1

SRA737 = compound: N#Cc1cnc(Nc2cc(NC[C@H]3CNCCO3)c(C(F)(F)F)cn2)cn1 [SRA737]; settings: max 10 µM
Procedure, shortened: as §1

Dasatinib = compound: CC1=C(C(=CC=C1)Cl)NC(=O)C2=CN=C(S2)NC3=CC(=NC(=N3)C)N4CCN(CC4)CCO [Dasatinib]; settings: max 2 µM
Procedure, shortened: as §1

Taselisib = compound: Cc1nc(-c2cn3c(n2)-c2ccc(-c4cnn(C(C)(C)C(N)=O)c4)cc2OCC3)n(C(C)C)n1 [Taselisib]; settings: max 10 µM
Procedure, shortened: as §1

5-Fluorouracil = compound: O=c1[nH]cc(F)c(=O)[nH]1 [5-Fluorouracil]; settings: max 20 µM
Procedure, shortened: as §1

Crizotinib = compound: C[C@@H](Oc1cc(-c2cnn(C3CCNCC3)c2)cnc1N)c1c(Cl)ccc(F)c1Cl [Crizotinib]; settings: max 10 µM
Procedure, shortened: as §1

MK-2206 = compound: NC1(c2ccc(-c3nc4ccn5c(=O)[nH]nc5c4cc3-c3ccccc3)cc2)CCC1 [MK-2206]; settings: max 10 µM
Procedure, shortened: as §1

Gemcitabine = compound: Nc1ccn([C@@H]2O[C@H](CO)[C@@H](O)C2(F)F)c(=O)n1 [Gemcitabine]; settings: max 0.3 µM
Procedure, shortened: as §1

Venetoclax = compound: CC1(C)CCC(CN2CCN(c3ccc(C(=O)NS(=O)(=O)c4ccc(NCC5CCOCC5)c([N+](=O)[O-])c4)c(Oc4cnc5[nH]ccc5c4)c3)CC2)=C(c2ccc(Cl)cc2)C1 [Venetoclax]; settings: max 1 µM
Procedure, shortened: as §1

[1] = compound: O=C(Nc1ccc2[nH]nc(-c3ccncc3)c2c1)[C@@H]1CCN(CC(=O)N2CCN(c3ccc(-c4ncccn4)cc3)CC2)C1; settings: max 5 µM
Procedure, shortened: as §1

AZD5363 = compound: C1CN(CCC1(C(=O)N[C@@H](CCO)C2=CC=C(C=C2)Cl)N)C3=NC=NC4=C3C=CN4 [AZD5363]; settings: max 10 µM
Procedure, shortened: as §1

Savolitinib = compound: C[C@@H](c1ccc2nccn2c1)n1nnc2ncc(-c3cnn(C)c3)nc21 [Savolitinib]; settings: max 1 µM
Procedure, shortened: as §1

Lapatinib = compound: CS(=O)(=O)CCNCc1ccc(-c2ccc3ncnc(Nc4ccc(OCc5cccc(F)c5)c(Cl)c4)c3c2)o1 [Lapatinib]; settings: max 10 µM
Procedure, shortened: as §1

Selumetinib = compound: Cn1cnc2c(F)c(Nc3ccc(Br)cc3Cl)c(C(=O)NOCCO)cc21 [Selumetinib]; settings: max 10 µM
Procedure, shortened: as §1

Gefitinib = compound: COc1cc2ncnc(Nc3ccc(F)c(Cl)c3)c2cc1OCCCN1CCOCC1 [Gefitinib]; settings: max 10 µM
Procedure, shortened: as §1

Trametinib = compound: CC(=O)Nc1cccc(-n2c(=O)n(C3CC3)c(=O)c3c(Nc4ccc(I)cc4F)n(C)c(=O)c(C)c32)c1 [Trametinib]; settings: max 1 µM
Procedure, shortened: as §1

SG3199 = compound: CC1=CN2[C@@H](C1)C=NC3=CC(=C(C=C3C2=O)OC)OCCCCCOC4=C(C=C5C(=C4)N=C[C@@H]6CC(=CN6C5=O)C)OC [SG3199]; settings: max 0.001 µM
Procedure, shortened: as §1

AZD2811 = compound: CCN(CCO)CCCOc1ccc2c(Nc3cc(CC(=O)Nc4cccc(F)c4)[nH]n3)ncnc2c1 [AZD2811]; settings: max 1 µM
Procedure, shortened: as §1

| Cell Line | IC50, cell viability 72 h (SN-38) | IC50, cell viability 72 h (AZD8186) | IC50, cell viability 72 h (AZD1775) | IC50, cell viability 72 h (AZD5991) | IC50, cell viability 72 h (AZD7648) | IC50, cell viability 72 h (Prexasertib) | IC50, cell viability 72 h (AZD5153) | IC50, cell viability 72 h (Olaparib) | IC50, cell viability 72 h (Carboplatin) | IC50, cell viability 72 h (AZD6738) | IC50, cell viability 72 h (AZD1390) | IC50, cell viability 72 h (Palbociclib) | IC50, cell viability 72 h (Alisertib) | IC50, cell viability 72 h (Doxorubicin) | IC50, cell viability 72 h (Paclitaxel) | IC50, cell viability 72 h (AZD0156) | IC50, cell viability 72 h (AZD4320) | IC50, cell viability 72 h (Etoposide) | IC50, cell viability 72 h (SRA737) | IC50, cell viability 72 h (Dasatinib) | IC50, cell viability 72 h (Taselisib) | IC50, cell viability 72 h (5-Fluorouracil) | IC50, cell viability 72 h (Crizotinib) | IC50, cell viability 72 h (MK-2206) | IC50, cell viability 72 h (Gemcitabine) | IC50, cell viability 72 h (Venetoclax) | IC50, cell viability 72 h [1] | IC50, cell viability 72 h (AZD5363) | IC50, cell viability 72 h (Savolitinib) | IC50, cell viability 72 h (Lapatinib) | IC50, cell viability 72 h (Selumetinib) | IC50, cell viability 72 h (Gefitinib) | IC50, cell viability 72 h (Trametinib) | IC50, cell viability 72 h (SG3199) | IC50, cell viability 72 h (AZD2811) |
| --- | --- | --- | --- | --- | --- | --- | --- | --- | --- | --- | --- | --- | --- | --- | --- | --- | --- | --- | --- | --- | --- | --- | --- | --- | --- | --- | --- | --- | --- | --- | --- | --- | --- | --- | --- |
| DND-41 (T-Lymphoblastic Leukemia) | 0.00288 µM | > 10 µM | 0.334 µM | > 1 µM | > 10 µM | 0.00675 µM | 0.595 µM | > 10 µM | > 10 µM | 1.5 µM | > 0.3 µM | > 10 µM | > 10 µM | 0.424 µM | > 3 µM | > 3 µM | 0.0338 µM | 0.763 µM | 1.09 µM | > 2 µM | > 10 µM | > 20 µM | 4.77 µM | > 10 µM | 0.0954 µM | 0.546 µM | > 5 µM | > 10 µM | > 1 µM | 7.51 µM | > 10 µM | > 10 µM | > 1 µM | > 0.001 µM | > 1 µM |
| ES1 (Ewing's Sarcoma) | 0.0031 µM | 8.67 µM | 0.784 µM | 0.435 µM | > 10 µM | 0.0135 µM | 0.604 µM | 4.47 µM | > 10 µM | 1.73 µM | > 0.3 µM | 2.17 µM | 2.37 µM | 0.101 µM | < 0.003 µM | > 3 µM | > 1 µM | 0.335 µM | 2 µM | > 2 µM | 1.05 µM | 9.22 µM | 2.48 µM | 3.97 µM | 0.00261 µM | > 1 µM | > 5 µM | > 10 µM | > 1 µM | > 10 µM | > 10 µM | > 10 µM | > 1 µM | > 0.001 µM | 0.51 µM |
| SR (Other Blood Carcinomas) | 0.0033 µM | > 10 µM | 0.187 µM | 0.352 µM | > 10 µM | 0.00588 µM | 0.0864 µM | > 10 µM | > 10 µM | 1.75 µM | > 0.3 µM | 3 µM | 0.0503 µM | 0.0261 µM | 0.00575 µM | > 3 µM | 0.677 µM | 0.126 µM | 1.4 µM | > 2 µM | > 10 µM | 4.32 µM | 0.251 µM | > 10 µM | 0.0453 µM | 0.722 µM | > 5 µM | > 10 µM | > 1 µM | > 10 µM | > 10 µM | > 10 µM | > 1 µM | > 0.001 µM | 0.0435 µM |
